Data published in the supplement of paper PMC9663587.

Experiments:
AU565 = experiment: GRmax, 72 h; higher = less effect;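 further: breast cell lines in 384-well plates, nine doses across a 10^4 range, Dye Drop imaging of viable cells vs DMSO and time-zero plates, GR 0 means no net growth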
EFM19 = experiment: GRmax, 72 h; higher = less effect;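 further: breast cell lines in 384-well plates, nine doses across a 10^4 range, Dye Drop imaging of viable cells vs DMSO and time-zero plates, GR 0 means no net growth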
HCC1937 = experiment: GRmax, 72 h; higher = less effect;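 further: breast cell lines in 384-well plates, nine doses across a 10^4 range, Dye Drop imaging of viable cells vs DMSO and time-zero plates, GR 0 means no net growth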
HS578T = experiment: GRmax, 72 h; higher = less effect;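 further: breast cell lines in 384-well plates, nine doses across a 10^4 range, Dye Drop imaging of viable cells vs DMSO and time-zero plates, GR 0 means no net growth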
PDXHCI002 = experiment: GRmax, 72 h; higher = less effect
SUM149 = experiment: GRmax, 72 h; higher = less effect
HCC1428 = experiment: area over the GR curve, 72 h; higher = more effect;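 further: Dye Drop or Deep Dye Drop imaging of viable cells in 384-well plates (Hoechst nuclei, LIVE/DEAD dye), nine half-log doses, GR normalized to DMSO controls and time-zero plates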
HCC1500 = experiment: area over the GR curve, 72 h; higher = more effect;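 further: Dye Drop or Deep Dye Drop imaging of viable cells in 384-well plates (Hoechst nuclei, LIVE/DEAD dye), nine half-log doses, GR normalized to DMSO controls and time-zero plates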
MDAMB157 = experiment: area over the GR curve, 72 h; higher = more effect;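 further: Dye Drop or Deep Dye Drop imaging of viable cells in 384-well plates (Hoechst nuclei, LIVE/DEAD dye), nine half-log doses, GR normalized to DMSO controls and time-zero plates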

| Structure (SMILES) | GRmax, 72 h (AU565) [GR] | GRmax, 72 h (EFM19) [GR] | GRmax, 72 h (HCC1937) [GR] | GRmax, 72 h (HS578T) [GR] | GRmax, 72 h (PDXHCI002) [GR] | GRmax, 72 h (SUM149) [GR] | area over the GR curve (HCC1428) [GR] | area over the GR curve (HCC1500) [GR] | area over the GR curve (MDAMB157) [GR] |
| --- | --- | --- | --- | --- | --- | --- | --- | --- | --- |
| COc1cccc2c1C(=O)c1c(O)c3c(c(O)c1C2=O)C[C@@](O)(C(=O)CO)C[C@@H]3O[C@H]1C[C@H](N)[C@H](O)[C@H](C)O1 [Doxorubicin] (max 3.162 µM) | -0.452 | -0.18 | -0.166 | -0.347 | -0.654 | -0.321 | 0.895 | 0.751 | 0.966 |
| COc1cc([C@@H]2c3cc4c(cc3[C@@H](O[C@@H]3O[C@@H]5CO[C@@H](C)O[C@H]5[C@H](O)[C@H]3O)[C@H]3COC(=O)[C@H]23)OCO4)cc(OC)c1O [Etoposide] (max 10 µM) | – | – | -0.118 | -0.136 | -0.179 | -0.196 | 0.39 | 0.218 | 0.609 |
| CO[C@H]1C[C@@H]2CC[C@@H](C)[C@@](O)(O2)C(=O)C(=O)N2CCCC[C@H]2C(=O)O[C@H]([C@H](C)C[C@@H]2CC[C@@H](OCCO)[C@H](OC)C2)CC(=O)[C@H](C)/C=C(\C)[C@@H](O)[C@@H](OC)C(=O)[C@H](C)C[C@H](C)/C=C/C=C/C=C/1C [Everolimus] (max 10 µM) | 0.4 | 0.249 | 0.632 | 0.42 | 0.987 | 0.737 | 0.519 | 1.26 | 0.394 |
| CC(C)n1nc(-c2ccc3oc(N)nc3c2)c2c(N)ncnc21 [INK128/MLN0128] (max 3.162 µM) | -0.496 | -0.128 | 0.358 | -0.0708 | 0.229 | 0.268 | 0.648 | 1.23 | 0.514 |
| CC(C)NC[C@@H](C(=O)N1CCN(c2ncnc3c2[C@H](C)C[C@H]3O)CC1)c1ccc(Cl)cc1 [Ipatasertib/GDC0068] (max 10 µM) | 0.274 | 0.066 | 0.535 | 0.442 | 1.1 | 0.291 | -0.0745 | -0.0881 | 0.0813 |
| CCNC(=O)c1noc(-c2cc(C(C)C)c(O)cc2O)c1-c1ccc(CN2CCOCC2)cc1 [Luminespib/NVP-AUY922] (max 1 µM) | -0.231 | 0.0263 | -0.187 | -0.114 | -0.281 | -0.392 | 0.637 | 0.546 | 0.615 |
| CCOc1cc2ncc(C#N)c(Nc3ccc(OCc4ccccn4)c(Cl)c3)c2cc1NC(=O)/C=C/CN(C)C [Neratinib/HKI272] (max 3.162 µM) | -0.638 | 0.718 | 0.3 | -0.161 | -0.161 | 0.155 | 0.101 | 0.165 | 0.191 |
| O=C(c1cc(Cc2n[nH]c(=O)c3ccccc23)ccc1F)N1CCN(C(=O)C2CC2)CC1 [Olaparib/AZD2281] (max 10 µM) | 0.572 | 0.63 | 0.685 | 0.444 | 0.265 | 0.205 | 0.323 | 0.0931 | 0.115 |
| CC(=O)O[C@H]1C(=O)[C@@]2(C)[C@H]([C@H](OC(=O)c3ccccc3)[C@]3(O)C[C@H](OC(=O)[C@H](O)[C@@H](NC(=O)c4ccccc4)c4ccccc4)C(C)=C1C3(C)C)[C@]1(OC(C)=O)CO[C@@H]1C[C@@H]2O [Paclitaxel] (max 1 µM) | -0.498 | -0.639 | 0.0104 | -0.375 | -0.512 | -0.257 | 0.507 | 0.609 | 0.946 |
| CS(=O)(=O)N1CCN(Cc2cc3nc(-c4cccc5[nH]ncc45)nc(N4CCOCC4)c3s2)CC1 [Pictilisib/GDC0941] (max 10 µM) | -0.405 | -0.154 | 0.278 | 0.0345 | -0.0101 | 0.341 | 0.117 | 0.203 | 0.258 |
| CN1CCN(CCOc2cc(OC3CCOCC3)c3c(Nc4c(Cl)ccc5c4OCO5)ncnc3c2)CC1 [Saracatinib/AZD0530] (max 10 µM) | 0.147 | 0.139 | 0.651 | 0.189 | 0.0015 | 0.188 | 0.0609 | 0.433 | 0.17 |
| Cc1cc(C(C)Nc2ccccc2)c2nc(N3CCOCC3)cc(=O)n2c1 (stereo not drawn) [TGX221] (max 10 µM) | 0.607 | 0.843 | 0.838 | 0.709 | 0.855 | 1.02 | 0.0058 | 0.0613 | -0.005 |
| Cc1nc(-c2cn3c(n2)-c2ccc(-c4cnn(C(C)(C)C(N)=O)c4)cc2OCC3)n(C(C)C)n1 [Taselisib/GDC0032] (max 10 µM) | -0.531 | -0.143 | 0.121 | -0.0179 | -0.137 | -0.224 | 0.139 | 0.209 | 0.339 |
| O=C1NC(=O)[C@@H](c2cn3c4c(cccc24)CCC3)[C@@H]1c1c[nH]c2ccccc12 [Tivantinib/ARQ197] (max 10 µM) | -0.514 | -0.592 | -0.0621 | -0.32 | -0.487 | -0.224 | 0.345 | 0.491 | 0.388 |
| CC[C@@]1(O)C(=O)OCc2c1cc1n(c2=O)Cc2cc3c(CN(C)C)c(O)ccc3nc2-1 [Topotecan] (max 10 µM) | – | – | -0.428 | -0.449 | -0.701 | -0.46 | 0.835 | 1.22 | 1.08 |
| Nc1ccc(-c2ccc3ncc4ccc(=O)n(-c5cccc(C(F)(F)F)c5)c4c3c2)cn1 [Torin2] (max 1 µM) | -0.39 | -0.0622 | 0.0726 | -0.217 | -0.102 | 0.0058 | 0.439 | 0.888 | 0.41 |
| CC[C@@H]1C(=O)N(C)c2cnc(Nc3ccc(C(=O)N[C@H]4CC[C@H](N5CCN(CC6CC6)CC5)CC4)cc3OC)nc2N1C(C)C [Volasertib/BI6727] (max 1 µM) | -0.473 | -0.577 | -0.148 | -0.312 | -0.589 | -0.297 | 0.395 | 0.297 | 0.851 |
| O=C(CCCCCCC(=O)Nc1ccccc1)NO [Vorinostat] (max 10 µM) | -0.491 | -0.248 | -0.0085 | -0.169 | -0.583 | -0.0704 | 0.339 | 0.301 | 0.297 |
